Patent US20170190726A9, “PRODRUG FOR RELEASE OF CISPLATIN AND CYCLOOXYGENASE INHIBITOR” (priority 2013, published 2017)

How the values were obtained:
[1] = system: RAW 264.7 macrophages; experiment: MTT cell viability of LPS activated RAW 264.7 macrophages; format: cell-based, mouse; details: 10 μM, 24 h
Procedure: FIG. 16: Cytotoxicity of Platin-A (10 μM), cisplatin (10 μM), aspirin (10 μM), and cisplatin (10 μM)+aspirin (10 μM) on LPS activated RAW 264.7 macrophages with incubation time of 24 h.
The cytotoxic behaviors of cisplatin, aspirin, cisplatin+aspirin, and Platin-A were evaluated using the MTT assay against PC3, DU145, LNCaP, and RAW 264.7 cells. Cells (2000 cells/well for PC3, and DU145 cells; 10000 cells/well for LNCaP and RAW 264.7) were seeded on a 96-well plate in 100 μL of desired medium and incubated for 24 h. The cells were treated with different constructs at varying concentrations and incubated for 72 h at 37° C. except for RAW 264.7 macrophages. An incubation time period of 24 h was used for macrophages. The cells were then treated with 20 μL of MTT (5 mg/mL in PBS) for 5 h. The medium was removed, the cells were lysed with 100 μL of DMSO, and the absorbance of the purple formazan was recorded at 550 nm using a Bio-Tek Synergy HT microplate reader. Each well was performed in triplicate. […] The IC50 values were reported at +95% confidence intervals.

[2] = molecular target: T1, ovine COX-1 (Ovis aries, UniProt P05979); experiment: In vitro COX inhibition assay (EIA), COX-1; format: biochemical; details: ovine COX-1, EIA, 0.25-1.5 mM, aspirin as positive control
T1 construct: purchased Cayman Chemicals 560101
T1 sequence (P05979 25-600): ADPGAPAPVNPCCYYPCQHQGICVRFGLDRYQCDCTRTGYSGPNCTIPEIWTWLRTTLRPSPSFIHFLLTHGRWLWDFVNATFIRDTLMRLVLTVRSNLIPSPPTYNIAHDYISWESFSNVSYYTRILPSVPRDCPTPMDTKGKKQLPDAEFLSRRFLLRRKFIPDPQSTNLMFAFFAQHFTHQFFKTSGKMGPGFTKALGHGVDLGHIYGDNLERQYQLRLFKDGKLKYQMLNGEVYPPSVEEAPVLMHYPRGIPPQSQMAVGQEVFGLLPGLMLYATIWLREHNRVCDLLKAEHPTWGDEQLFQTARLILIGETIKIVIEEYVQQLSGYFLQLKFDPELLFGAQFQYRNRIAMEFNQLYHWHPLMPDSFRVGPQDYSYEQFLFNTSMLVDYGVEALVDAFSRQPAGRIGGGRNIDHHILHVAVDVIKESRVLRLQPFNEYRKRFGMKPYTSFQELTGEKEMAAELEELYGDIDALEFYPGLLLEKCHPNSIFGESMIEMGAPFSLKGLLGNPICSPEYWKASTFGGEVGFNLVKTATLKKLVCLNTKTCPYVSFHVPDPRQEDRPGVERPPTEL
Procedure: An enzyme immunoassay (EIA) kit from Cayman Chemicals (catalogue number 560101) was used to assess the ability of Platin-A to inhibit ovine COX-1 and COX-2. COX inhibition assay was performed as per the manufacturer protocol. All stock solutions were prepared following manufactures instruction. This inhibition assay was carried out using a two-step process: COX reaction and EIA. COX reaction involved preparation of following samples.
(i) Background samples: COX-1 and COX-2 were inactivated by transferring 20 μL of each enzyme to an eppendorf tube and placing the tube in boiling water for 3 min. […] (ii) COX-1 or COX-2 100% initial activity samples: 950 μL of reaction buffer, 10 μL of heme, 10 μL of COX-1 or COX-2, and 20 μL of reaction buffer were added to each test tube. (iii) COX-1 or COX-2 inhibitor samples: 950 μL of reaction buffer, 10 μL of heme, 10 μL of COX-1 or COX-2 and 20 μL of COX-1 and COX-2 inhibitors under investigation, aspirin and Platin-A of different concentrations (0.25, 0.5, 0.75, 1, and 1.5 mM for COX-1; 0.75, 1, 1.25, 1.5, and 2 mM for COX-2) were added to each test tube.
All the samples were incubated for 5 min in water bath at 37° C. […]
For EIA, 100 μL of EIA buffer was added to non-specific binding well and 50 μL of EIA buffer to maximum binding wells. […] Absorbance was recorded at a wavelength of 410 nm using a plate reader.

[3] = system: IL-6; experiment: ELISA of IL-6 in LPS-stimulated RAW 264.7 macrophages; format: cell-based, mouse
Procedure: (§1) RAW 264.7 cells were plated at a concentration of 10,000 cells/mL in 96 plates and allowed to grow overnight. For preventative anti-inflammatory treatment, Platin-A (10 μM), aspirin (10 μM), cisplatin (10 μM) and an equimolar ratio of cisplatin and aspirin (10 μM each) was incubated with the RAW cells for 6 h. Lipopolysaccharide (LPS) (100 ng/mL) was added and the cells were further incubated for 12 h. For therapeutic anti-inflammatory treatment, LPS (100 ng/mL) was added to the RAW cells and incubated for 6 h. Platin-A (10 μM), aspirin (10 μM), cisplatin (10 μM) and an equimolar ratio of cisplatin and aspirin (10 μM each) was then added to the cells and incubated for 12 h. ELISA was performed on the supernatants against the cytokines interleukin (IL)-6, IL-10, and TNF-α. Briefly, antibody coated plates were blocked with 10% FBS in PBS for 1 h at room temperature followed by 3 washes. RAW cell supernatants were incubated on the plates for 2 h at room temperature. This was immediately followed by washings and sequential incubations with the cytokine-biotin conjugate and streptavidin working solution. Finally, the substrate reagent containing 3,3′,5,5′-tetramethylbenzidine (100 μL) was added to each well, incubated for 15 min, the reaction was stopped by adding 50 μL H2SO4 (0.1 M). The absorbance was recorded at 450 nm using a BioTek Synergy HT well plate reader.

[4] = system: TNF-α; experiment: ELISA of TNF-α in LPS-stimulated RAW 264.7 macrophages; format: cell-based, mouse
Procedure: as §1

[5] = preventive: pretreatment 10 μM 6 h, then LPS 12 h
[6] = therapeutic: LPS activated macrophages then 10 μM for 12 h

CC(=O)Oc1ccccc1C(=O)[O][Pt]([NH2])([NH2])([OH])([Cl])[Cl] [Platin-A]
cell viability [1]: did not affect cell viability | COX-1 inhibition [2]: very similar inhibition of both COX-1 and COX-2 as shown by aspirin | LPS-induced IL-6 production [3, 5]: significantly inhibited | levels of IL-6 [3, 6]: significantly reduced | LPS-induced TNF-α production [4, 5]: significantly inhibited | levels of TNF-α [4, 6]: significantly reduced
